According to patent US4102994A, “Aliphatic amido-quaternary ammonium anti-microbial compounds” (Colgate-Palmolive Company, priority 1977, dated 1978):
Where two headings read alike, the source gives them in different places.

Legend:
[1] = test system: A. naeslundii; test: Test tube serial dilution test (minimal inhibitory concentration); assay type: cell-based, Actinomycetes naeslundii; conditions: Actinomyces naeslundii, broth serial dilution, read-out: Minimum Inhibitory Concentration
Method: (§1) The anti-microbial nature of the instant novel compounds was shown by a standard test tube serial dilution test in which an appropriate number of test tubes of broth containing decreasing concentrations of the test agent was innoculated with the test organism. After a suitable period of incubation, the tubes were examined for the presence or absence of growth. The activity of the test agent was the lowest concentration which inhibited the growth of the organism and is expressed as the minimal inhibitory concentration in ppm. As shown in the following table of antimicrobial data, a definite break occurs between compounds wherein R^4 contains 8 carbons and 10 carbons.

[2] = test system: Str. mutans; test: as above; assay type: cell-based; conditions: Streptococcus mutans, broth serial dilution, read-out: Minimum Inhibitory Concentration
Method: as §1

[3] = test system: P. aeruginosa; test: as above; assay type: cell-based; conditions: Pseudomonas aeruginosa, broth serial dilution, read-out: Minimum Inhibitory Concentration
Method: as §1

[4] = test system: Str. sanguis; test: as above; assay type: cell-based; conditions: Streptococcus, broth serial dilution, read-out: Minimum Inhibitory Concentration
Method: as §1

[5] = test system: C. albicans; test: as above; assay type: cell-based; conditions: Candida albicans
Method: as §1

[6] = test system: S. aureus; test: as above; assay type: cell-based; conditions: Staphylococcus aureus
Method: as §1

[7] = test system: A. niger; test: as above; assay type: cell-based; conditions: Aspergillus niger, broth serial dilution, read-out: Minimum Inhibitory Concentration
Method: as §1

[8] = test system: E. coli; test: as above; assay type: cell-based; conditions: Escherichia coli
Method: as §1

[9] = test system: T. mentagrophytes; test: as above; assay type: cell-based, Trichophyton mentogrophytes; conditions: Trichophyton mentagrophytes
Method: as §1

[10] = test system: Str. mitis; test: as above; assay type: cell-based; conditions: Streptococcus mitis
Method: as §1

[11] = test system: dental calculus; test: Dental calculus inhibition in rats on Zipkin-McClure calculus producing diet, Baer's method; assay type: in vivo, littermated albino rats; conditions: .1% test solution, teeth swabbed thirty seconds each day for six weeks, vs water control, 99% significant
Source text: The quaternary ammonium amides of adamantanecarboxylic acid are particularly effective in inhibiting the development of dental calculus as shown by the results of tests on littermated albino rats, in groups of 15 males and 15 females who were fed a Zipkin-McClure calculus producing diet. For six weeks the teeth of each animal were swabbed for thirty seconds each day with a test solution or water for the control group. The animals were then sacrificed, defleshed and scored by Baer's method for calculus. The results were analyzed by Student's "t" test and in the results quoted were 99% significant.

[12] = C. albicans, broth serial dilution, read-out: Minimum Inhibitory Concentration
[13] = S. aureus, broth serial dilution, read-out: Minimum Inhibitory Concentration
[14] = E. coli, broth serial dilution, read-out: Minimum Inhibitory Concentration
[15] = T. mentagrophytes, broth serial dilution, read-out: Minimum Inhibitory Concentration
[16] = Str. mitis, broth serial dilution, read-out: Minimum Inhibitory Concentration
[17] = Table III, no quantity or unit printed in the table, minimal inhibitory concentration in ppm, read-out: antimicrobial results, S.mitis (Table III)
[18] = Table III, no quantity or unit printed in the table, minimal inhibitory concentration in ppm, read-out: antimicrobial results, C.albicans (Table III)
[19] = read-out: antimicrobial results, S.aureus (Table III)
[20] = Table III, no quantity or unit printed in the table, minimal inhibitory concentration in ppm, read-out: antimicrobial results, E.coli (Table III)
[21] = Table III, no quantity or unit printed in the table, minimal inhibitory concentration in ppm, read-out: antimicrobial results, T.mentagrophytes (Table III)

SMILES	MIC [1]	MIC [2]	MIC [3]	MIC [4]	MIC [5, 12]	MIC [6, 13]	MIC [7]	MIC [8, 14]	MIC [9, 15]	MIC [10, 16]	Calculus Reduction, Females ([11]; females)	Calculus Reduction, Males ([11]; males)	MIC [10, 17]	MIC [5, 18]	MIC [6, 19]	MIC [8, 20]	MIC [9, 21]
CCCCCCCCCCCCCC[N+](C)(C)CCCNC(=O)[C@H]1CC[C@@H]2CCC[C@@H]21 (relative stereo) [Comp.14, 3-(exo,cis-Bicyclooctane-2-carboxamido)propyltetradecyl dimethyl ammonium bromide]	< 0.05 µg/mL	< 0.05 µg/mL	50 µg/mL	6.25 µg/mL	3.12 µg/mL	0.78 µg/mL	25 µg/mL	50 µg/mL	3.12 µg/mL								
CCCCCCCCCCCC[N+](C)(C)CCCNC(=O)[C@H]1CC[C@@H]2CCC[C@@H]21 (relative stereo) [Comp.15]	0.19 µg/mL	0.1 µg/mL	25 µg/mL	3.12 µg/mL	3.12 µg/mL	1.56 µg/mL	25 µg/mL	25 µg/mL	6.25 µg/mL								
CCCCCCCCCC[N+](C)(C)CCCNC(=O)CCCCCCC.[I-] [Comp.3, 3-Octaneamidopropyldimethyldecyl ammonium iodide]	12.5 µg/mL	0.78 µg/mL	25 µg/mL	6.25 µg/mL	6.25 µg/mL	12.5 µg/mL	25 µg/mL	50 µg/mL	12.5 µg/mL								
CCCCCCCCCCCC[N+](C)(C)CCCNC(=O)C12CC3CC(CC(C3)C1)C2 [Comp.9, 3-(1'-adamantanecarboxamido)propyldimethyldodecyl ammonium bromide]					6.25 µg/mL	0.78 µg/mL	25 µg/mL	50 µg/mL	12.5 µg/mL	0.39 µg/mL							
CCCCCCCCCCCCCC[N+](C)(C)CCCNC(=O)C12CC3CC(CC(C3)C1)C2 [Comp.10, 3-(1'-adamantanecarboxamido)propyldimethyltetradecyl ammonium bromide]					6.25 µg/mL	0.39 µg/mL	50 µg/mL	25 µg/mL	25 µg/mL	0.39 µg/mL	6.27%	43.43%					
CCCCCCCCCCCCCC[N+](C)(C)CCCNC(=O)C1CC2CCC1C2 (centres unmarked) [Comp.16, 3-(2'-norbornanecarboxamido)propyltetradecyldimethyl ammonium bromide]	0.1 µg/mL	0.1 µg/mL	50 µg/mL	1.56 µg/mL	3.12 µg/mL	1.56 µg/mL	25 µg/mL	50 µg/mL	6.25 µg/mL								
CCCCCCCCCCCCCC[N+](C)(C)CCCNC(=O)C(CC)CCCC (centres unmarked) [R *C7 (branch), R^4 C14, X Cl]													1.56 µg/mL	3.12 µg/mL	0.78 µg/mL	50 µg/mL	6.25 µg/mL
CCCCCCCCCCCC[N+](C)(C)CCCNC(=O)C(CC)CCCC (centres unmarked) [R *C7 branch, R^4 C12, X I]													3.12 µg/mL	3.12 µg/mL	1.56 µg/mL	50 µg/mL	12.5 µg/mL
CCCCCCCCCCCCCC[N+](C)(C)CCCNC(=O)CCCCCCC.[Cl-] [R C7, R^4 C14, X Cl, 3-Octaneamidopropyldimethyltetradecyl ammonium chloride]													1.56 µg/mL	3.12 µg/mL	0.78 µg/mL	50 µg/mL	3.12 µg/mL
CCCCCCCCCCCC[N+](C)(C)CCCNC(=O)CCCCCCCC [R C8, R^4 C12, X I]													1.56 µg/mL	1.56 µg/mL	0.78 µg/mL	12.5 µg/mL	12.5 µg/mL
CCCCCCCCCCCCCC[N+](C)(C)CCCNC(=O)CCCCCCCC.[Cl-] [R C8, R^4 C14, X Cl, 3-Nonaneamidopropyldimethyltetradecyl ammonium chloride]													0.78 µg/mL	1.56 µg/mL	1.56 µg/mL	100 µg/mL	3.12 µg/mL
CCCCCCCCCCCCCC[N+](C)(C)CCCNC(=O)CCCCCCCCC.[Cl-] [R C9, R^4 C14, X Cl, 3-Decaneamidopropyldimethyltetradecyl ammonium chloride]													6.25 µg/mL	3.12 µg/mL	3.12 µg/mL	100 µg/mL	6.25 µg/mL
CCCCCCCCCCCC(=O)NCCC[N+](C)(C)C [R C11, R^4 C1, X I, reference compound]													50 µg/mL	50 µg/mL	50 µg/mL	50 µg/mL	50 µg/mL
CCCCCCCCCCCCCC[N+](C)(C)CCCNC(=O)CCCCCCCCCCC.[Cl-] [R C11, R^4 C14, X Cl, 3-Dodecaneamidopropyldimethyltetradecyl ammonium chloride]													12.5 µg/mL	25 µg/mL	6.25 µg/mL	100 µg/mL	25 µg/mL
CCCC[N+](CC)(CC)CCNC(=O)C12CC3CC(CC(C3)C1)C2 [R^4 =C4 H9, reference compound]	100 µg/mL	100 µg/mL		50 µg/mL	100 µg/mL	100 µg/mL	100 µg/mL		50 µg/mL								
CCCCCC[N+](CC)(CC)CCNC(=O)C12CC3CC(CC(C3)C1)C2 [R^4 =C6 H13, reference compound]	50 µg/mL	100 µg/mL		50 µg/mL	100 µg/mL	100 µg/mL	100 µg/mL		50 µg/mL								
CCCCCCCC[N+](CC)(CC)CCNC(=O)C12CC3CC(CC(C3)C1)C2 [R^4 =C8 H17, reference compound]	12.5 µg/mL	25 µg/mL		50 µg/mL	50 µg/mL	25 µg/mL	100 µg/mL		50 µg/mL								
CCCCCCCCCC[N+](CC)(CC)CCNC(=O)C12CC3CC(CC(C3)C1)C2 [R^4 =C10 H21]	1.56 µg/mL	6.25 µg/mL		6.25 µg/mL	6.25 µg/mL	3.12 µg/mL	50 µg/mL		50 µg/mL								
CCCCCCCCCCCC[N+](CC)(CC)CCNC(=O)C12CC3CC(CC(C3)C1)C2 [R^4 =C12 H25]	0.39 µg/mL	0.78 µg/mL		3.12 µg/mL	1.56 µg/mL	1.56 µg/mL	12.5 µg/mL		3.12 µg/mL								
